Data: BindingDB's records for doi:10.1021/jm060460o (University of Michigan, 2006)

Test: Inhibition of growth of human PC3 cell overexpressing Bcl2

Structure (SMILES)	IC50
CC(C)c1ccccc1Cc1cc(C(=O)Nc2ccc(S(=O)(=O)c3ccccc3C(C)(C)C)cc2)c(O)c(O)c1O [(N-[(2-tert-butylbenzenesulfonyl)phenyl]-2,3,4-trihydroxy-5-(2-isopropylbenzyl)benzamide]	0.2 µM
O=C(Nc1ccc(S(=O)(=O)c2ccccc2)cc1)c1cc(Cc2ccccc2)c(O)c(O)c1O [N-(benzenesulfonyl-phenyl)-2,3,4-trihydroxy-5-benzyl-benzamide]	4 µM

Results, then the compound that gave them:

IC50	Structure (SMILES)
7 µM	CC(C)c1cc(C(=O)Nc2ccccc2)c(O)c(O)c1O [2,3,4-trihydroxy-5-isopropyl-N-phenyl-benzamide]
> 100 µM	COc1c(Cc2ccccc2C(C)C)cc(C(=O)Nc2ccc(S(=O)(=O)c3ccccc3C(C)(C)C)cc2)c(OC)c1OC [N-[(2-Tert-butyl-benzenesulfonyl)-phenyl]-2,3,4-trimethoxyl-5-(2-isopropyl-benzyl)-benzamide]
5 µM	O=C(Nc1ccccc1)c1cc(Cc2ccccc2)c(O)c(O)c1O [N-phenyl-2,3,4-trihydroxy-5-benzyl-benzamide]
